In patent US11891634B2, “PDE5A destabilizing domains” (The Board of Trustees of the Leland Stanford Junior …, priority 2017, dated 2024):

Tests used:
Assay type in all cases: cell-based, human
[1] = tested on: HCT116 cells transduced with the constructs; assay: Response to Sildenafil, GFP expression by flow cytometry in HCT116; details: for MFI / Stabilization ratio with Sildenafil: 48 hours, HCT116
Procedure, shortened: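 HCT116 cells stably expressing AcGFP-fused destabilizing domains from a lentiviral mCherry-marked vector (sorted on mCherry) were exposed to sildenafil at 0.01–100 μM for 48 hours. GFP mean fluorescence intensity was measured by flow cytometry.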

[2] = tested on: HCT 116 cells transduced with the PDE5A DD derived GFP constructs; assay: Response to Tadalafil, GFP expression by FACS in HCT116; details: 48 hours, HCT116
Procedure, shortened: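 HCT116 cells stably transduced (mCherry-sorted) with lentiviral PDE5A DD–AcGFP constructs, exposed to DMSO or Tadalafil 0.01–100 μM for 48 hrs. GFP mean fluorescence by FACS; stabilization ratio = ligand vs no-ligand signal, basal expression = no-ligand signal vs parental autofluorescence.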

[3] = tested on: HCT 116 cells transduced with the PDE5A DD derived GFP constructs; assay: Response to Vardenafil, GFP expression by FACS in HCT116; details: 48 hours, HCT116
Procedure, shortened: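 HCT116 cells stably carrying lentiviral AcGFP fusions of PDE5A (535-860) mutants, sorted on mCherry, got DMSO or Vardenafil (10 μM, or 0.002–30 μM) for 48 h, and GFP MFI was read by flow cytometry. Basal expression is untreated GFP over parental autofluorescence; the stabilization ratio is treated over untreated MFI.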

PDE5AN (#3): N-terminal DD 535-860 of PDE5A (Q589R, K633E, T712S, K852E, K795E), SEQ ID NO. 66, fused to AcGFP
MFI ([1]; DMSO (no Sildenafil)): 9835 | Stabilization ratio with Sildenafil ([1]; Sildenafil 0.01 μM vs DMSO): 1.0 | MFI ([1]; Sildenafil 0.01 μM): 9888 | Stabilization ratio with Sildenafil ([1]; Sildenafil 0.02 μM vs DMSO): 1.0 | MFI ([1]; Sildenafil 0.02 μM): 10157 | Stabilization ratio with Sildenafil ([1]; Sildenafil 0.05 μM vs DMSO): 1.0 | MFI ([1]; Sildenafil 0.05 μM): 9952 | Stabilization ratio with Sildenafil ([1]; Sildenafil 0.14 μM vs DMSO): 1.1 | MFI ([1]; Sildenafil 0.14 μM): 10475 | Stabilization ratio with Sildenafil ([1]; Sildenafil 0.41 μM vs DMSO): 1.3 | MFI ([1]; Sildenafil 0.41 μM): 12302 | Stabilization ratio with Sildenafil ([1]; Sildenafil 1.23 μM vs DMSO): 1.7 | MFI ([1]; Sildenafil 1.23 μM): 16826 | Stabilization ratio with Sildenafil ([1]; Sildenafil 3.70 μM vs DMSO): 2.8 | MFI ([1]; Sildenafil 3.70 μM): 27542 | Stabilization ratio with Sildenafil ([1]; Sildenafil 11.11 μM vs DMSO): 5.4 | MFI ([1]; Sildenafil 11.11 μM): 52641 | Stabilization ratio with Sildenafil ([1]; Sildenafil 33.33 μM vs DMSO): 8.7 | MFI ([1]; Sildenafil 33.33 μM): 85509 | MFI ([1]; Sildenafil 100.00 μM): 103938 | Basal expression ([1]; Table 26, MFI with DMSO / parental HCT116, Sildenafil experiment): 7.6 | MFI ([2]; DMSO (no Tadalafil)): 6944 | expression of GFP (MFI) with increasing doses of Tadalafil ([2]; Tadalafil 0.01 μM to 100 μM): Tadalafil dose dependent increase in the MFI | Stabilization ratio with Tadalafil ([2]; Tadalafil 0.01 μM vs DMSO): 1.0 | MFI ([2]; Tadalafil 0.01 μM): 6781 | Stabilization ratio with Tadalafil ([2]; Tadalafil 0.02 μM vs DMSO): 1.0 | MFI ([2]; Tadalafil 0.02 μM): 6685 | Stabilization ratio with Tadalafil ([2]; Tadalafil 0.05 μM vs DMSO): 1.0 | MFI ([2]; Tadalafil 0.05 μM): 7013 | Stabilization ratio with Tadalafil ([2]; Tadalafil 0.14 μM vs DMSO): 1.0 | MFI ([2]; Tadalafil 0.14 μM): 6988 | Stabilization ratio with Tadalafil ([2]; Tadalafil 0.41 μM vs DMSO): 1.1 | MFI ([2]; Tadalafil 0.41 μM): 7648 | Stabilization ratio with Tadalafil ([2]; Tadalafil 1.23 μM vs DMSO): 1.3 | MFI ([2]; Tadalafil 1.23 μM): 8973 | Stabilization ratio with Tadalafil ([2]; Tadalafil 3.7 μM vs DMSO): 2.0 | MFI ([2]; Tadalafil 3.7 μM): 14097 | Stabilization ratio with Tadalafil ([2]; Tadalafil 11.11 μM vs DMSO): 3.8 | MFI ([2]; Tadalafil 11.11 μM): 26560 | Stabilization ratio with Tadalafil ([2]; Tadalafil 33.33 μM vs DMSO): 7.2 | MFI ([2]; Tadalafil 33.33 μM): 49889 | Stabilization ratio with Tadalafil ([2]; Tadalafil 100 μM vs DMSO): 9.9 | MFI ([2]; Tadalafil 100 μM): 68532 | MFI ([3]; DMSO (no Vardenafil)): 8934 | Stabilization ratio ([3]; Table 10, 10 μM Vardenafil vs DMSO): stabilization ratios similar to those observed for sildenafil | Stabilization ratio with Vardenafil ([3]; Vardenafil 0.002 μM vs DMSO): 1.0 | MFI ([3]; Vardenafil 0.002 μM): 8767 | MFI ([3]; Vardenafil 0.005 μM): 9620 | Stabilization ratio with Vardenafil ([3]; Vardenafil 0.014 μM vs DMSO): 1.2 | MFI ([3]; Vardenafil 0.014 μM): 10487 | Stabilization ratio with Vardenafil ([3]; Vardenafil 0.041 μM vs DMSO): 1.6 | MFI ([3]; Vardenafil 0.041 μM): 14086 | Stabilization ratio with Vardenafil ([3]; Vardenafil 0.123 μM vs DMSO): 2.3 | MFI ([3]; Vardenafil 0.123 μM): 20568 | Stabilization ratio with Vardenafil ([3]; Vardenafil 0.370 μM vs DMSO): 4.1 | MFI ([3]; Vardenafil 0.370 μM): 36786 | Stabilization ratio with Vardenafil ([3]; Vardenafil 1.111 μM vs DMSO): 7.4 | MFI ([3]; Vardenafil 1.111 μM): 66543 | Stabilization ratio with Vardenafil ([3]; Vardenafil 3.333 μM vs DMSO): 11.1 | MFI ([3]; Vardenafil 3.333 μM): 98986 | Stabilization ratio with Vardenafil ([3]; Vardenafil 10 μM vs DMSO): 13.4 | MFI ([3]; Vardenafil 10 μM): 119591 | MFI ([3]; Vardenafil 30 μM): 131667
